Entries after “also recorded” stand apart in the source; their conditions may differ.
What was measured:
[1] = molecular target: T1, alpha-synuclein/Synapsin III interaction (Homo sapiens, UniProt O14994+P37840); test: Acceptor photobleaching FRET of alpha-synuclein/Synapsin III interaction in neuronal-differentiated SK-N-SH cells; format: cell-based; conditions: 10 μM, 15 min; for % FRET efficiency change vs MPH-treated cells: vs MPH 10 μM; for stimulation of alpha-synuclein/Synapsin III interaction (FRET efficiency), in words: vs basal
T1 construct: expressed in transfected cells; host or cells: neuronal-differentiated (retinoic acid) human SK-N-SH neuroblastoma cells, transient transfection with Lipofectamine 3000
T1 sequence (O14994 whole entry, one chain of several): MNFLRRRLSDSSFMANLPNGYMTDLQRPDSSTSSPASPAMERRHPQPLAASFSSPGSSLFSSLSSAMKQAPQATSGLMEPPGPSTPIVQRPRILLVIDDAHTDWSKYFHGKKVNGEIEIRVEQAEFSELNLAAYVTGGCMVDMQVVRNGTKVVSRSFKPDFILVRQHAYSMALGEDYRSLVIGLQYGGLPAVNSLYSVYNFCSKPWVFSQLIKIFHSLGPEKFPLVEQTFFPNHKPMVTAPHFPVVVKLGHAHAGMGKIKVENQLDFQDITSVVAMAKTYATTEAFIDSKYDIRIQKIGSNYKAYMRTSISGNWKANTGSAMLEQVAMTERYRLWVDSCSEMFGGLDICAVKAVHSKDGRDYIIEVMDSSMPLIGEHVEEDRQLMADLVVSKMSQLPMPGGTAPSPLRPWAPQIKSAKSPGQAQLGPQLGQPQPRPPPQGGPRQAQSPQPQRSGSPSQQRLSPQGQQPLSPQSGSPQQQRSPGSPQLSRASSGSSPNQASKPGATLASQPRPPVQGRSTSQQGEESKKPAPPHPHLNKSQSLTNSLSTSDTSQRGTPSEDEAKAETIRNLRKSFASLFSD
Description: The ability of the different compound to stimulate alpha-synuclein/Synapsin III interaction was evaluated by acceptor photobleaching FRET or FLIM in neuronal-like cells. In particular, we used neuronal-differentiated SK—N—SH neuroblastoma cells transiently transfected with red fluorescent protein (RFP)-tagged human wild type alpha-synuclein and green fluorescent protein (GFP)-tagged the human 63 kDa Synapsin III isoform.
Acceptor photobleaching FRET microscopy allows an accurate evaluation of protein-protein interaction through the measurement of FRET efficiency. This parameter is indicative of the increase of donor fluorescence after complete photobleaching of the acceptor fluorescence, within a FRET pair of fluorophores (where the emission wavelength of a donor falls within the excitation wavelength of an acceptor). Since FRET efficiency is detectable only when the two fluorophores are sufficiently close to ensure that their linked proteins are interacting, the molecular proximity of these latter results strictly dependent on this parameter^36,37. […] Human neuroblastoma SK—N—SH cells were grown in complete medium comprising Dulbecco's modified Eagle's medium with 1000 mg glucose/l supplemented with 10% heat-inactivated fetal bovine serum, 100 μg/ml penicillin and 100 μg/ml streptomycin. Cells were maintained at 37° C. under a humidified atmosphere of 5% CO2 and […]. For FRET studies, SK—N—SH cells were seeded onto poli-D-lysine-coated 13 mm glass coverslips in 24-well plates (15000 cells per coverslip) and were maintained in differentiation medium for ten days by daily adding 10 μM retinoic acid to the medium. […] Fixed cells were analyzed by means of a Zeiss confocal laser microscope LSM 880 (Carl Zeiss) with the laser set on A=488-543. After identifying double positive cells three-to-six regions of interest (ROI) were analyzed for 4 series. Two images of basal condition (Pre-bleaching) were acquired before bleaching the RFP acceptor fluorophore with laser 543 set at 65% power. Then, other two images were acquired after the bleaching (Post-bleaching). The FRET efficiency (intended as the GFP recovery after RFP photobleaching) was measured by using Zen black software (Carl Zeiss). The average intensity of the background (outside the cell) was subtracted from the average intensity of the ROI and all the FRET values resulting from the different ROI were used for statistical analysis.
Human neuroblastoma SK—N—SH cells were grown in complete medium comprising Dulbecco's modified Eagle's medium with 1000 mg glucose/l supplemented with 10% heat-inactivated fetal bovine serum, 100 μg/ml penicillin and 100 μg/ml streptomycin. Cells were maintained at 37° C. under a humidified atmosphere of 5% CO2 and […]. For FRET studies, SK—N—SH cells were seeded onto poli-D-lysine-coated 13 mm glass coverslips in 24-well plates (15000 cells per coverslip) and were maintained in differentiation medium for ten days by daily adding 10 μM retinoic acid to the medium. […] Fixed cells were analyzed by means of a Zeiss confocal laser microscope LSM 880 (Carl Zeiss) with the laser set on λ=488-543. After identifying double positive cells three-to-six regions of interest (ROI) were analyzed for 4 series. Two images of basal condition (Pre-bleaching) were acquired before bleaching the RFP acceptor fluorophore with laser 543 set at 65% power. Then, other two images were acquired after the bleaching (Post-bleaching). The FRET efficiency (intended as the GFP recovery after RFP photobleaching) was measured by using Zen black software (Carl Zeiss). The average intensity of the background (outside the cell) was subtracted from the average intensity of the ROI and all the FRET values resulting from the different ROI were used for statistical analysis.

[2] = test system: primary mesencephalic cultures; test: MTT cell viability assay; format: cell-based, mouse; conditions: 24 h
Description: The cytotoxic effect of compounds treatment was measured by evaluating mitochondrial dehydrogenase activity using the MTT salt assay.
Neuronal differentiated SK—N—SH cells were thus exposed to different concentrations of I-threo, IV-threo, I-erythro, V-threo and V-erythro as described above, and then used for the MTT cell viability assay.
Animals: C57BL/6J wt mice (C57BL/6J) (Charles River, Wilmington, MA) used in this study, were bred in our animal house facility at the Department of Molecular and Translational Medicine of University of Brescia. Animals were maintained under a 12h light-dark cycle at a room temperature (rt) of 22° C. and had ad libitum food and water. All experiments were made in accordance to Directive 2010/63/EU of the European Parliament and of the Council of 22 Sep. 2010 on the protection of animals used. All experimental and surgical procedures conformed to the National Research Guide for the Care and Use of Laboratory Animals were approved by the Animal Research Committees of the University of Brescia (Protocol Permit 719/2015-PR). All achievements were made to minimize animal suffering and to reduce the number of animals used. Primary neuronal cultures from mesencephalic tissues were dissected from C57BL/6J 13-days embryos. Briefly, after mechanical dissociation the single cells were re-suspended in Neurobasal medium containing 100 μg/ml penicillin, 100 μg/ml streptomycin, 0.5 mM glutamine and 1% B27 supplement. Cells were then centrifuged and cell count and viability assays were performed using the Trypan Blue exclusion test. Cells were seeded onto poly-D-lysine-coated glass coverslides in 24-well plates (14 μg/mL) for immunocytochemistry (100000 cells/well). Cells were maintained at 37° C. under a humidified atmosphere of 5% CO2 and […] for at least 10 days in vitro (DIV 10) prior to their use to allow their maturation. At DIV 10, cells were treated with increasing concentrations (0.01 μM-0.1 μM-1 μM-[…]) of the different compounds (I-threo, IV-threo, I-erythro, V-threo, VI-threo). Twenty-four h after the treatments, culture medium was removed and 300 μL of MTT 0.5 mg/mL diluted in culture medium was added to each well. After 90′ incubation at 37° C., the medium was removed and 250 μL aliquots of DMSO were added to each well to solubilize the formazan crystals. Absorbance was measured at 570 nm using a microplate reader. Cell viability was expressed as absorbance value.

[3] = test system: aged human alpha-synuclein transgenic mouse model of Parkinson's disease; conditions: independent of dopamine transporter inhibition; abolished by Synapsin III gene silencing; cited from earlier work
[4] = test system: advanced Parkinson's disease; conditions: cited from earlier work
[5] = test system: alpha-synuclein aggregation in SK—N—SH cells; test: Alpha-synuclein aggregation after glucose deprivation in SK-N-SH alpha-synuclein stable clones (immunocytochemistry); format: cell-based, human; conditions: for alpha-synuclein aggregates seen in images after GD: 24 h, vs non-treated (NT) cells, preliminary
Description: Human neuroblastoma SK—N—SH full length (fl) alpha-synuclein stable clones were seeded onto poly-D-lysine-coated glass coverslides in 24-well plates and were grown in complete medium comprising Dulbecco's modified Eagle's medium with 1000 mg glucose/l supplemented with 10% heat-inactivated fetal bovine serum, 100 μg/ml penicillin and 100 μg/ml streptomycin. Cells were maintained at 37° C. under a humidified atmosphere of 5% CO2 and […]. At 80% confluence, cells underwent glucose deprivation (GD) in order to induce alpha-synuclein aggregation (Bellucci, A.; et al. Journal of neurochemistry 2008, 106, 560-577). Briefly, GD was performed through an incubation of the cells with Hank's balanced salt solution supplemented with 2 mM glutamine and 10% heat-inactivated fetal bovine serum, for 1 h at 37° C. […] After 24 h of treatment, cells were fixed by incubating for 15 min in 4% paraformaldehyde with 4% sucrose in 1 M PBS, pH 7.4. The fixed cells were then stored in PBS-containing 0.05% sodium azide. Slides were incubated for 1 h at room temperature in blocking solution [2% w/v bovine serum albumin (BSA) plus 3% v/v normal goat serum in PBS], then overnight at 4° C. with the primary antibody (Syn211 antibody against alpha-synuclein) at the optimal working dilution. On the following day, cells were incubated for 1 h at room temperature with the Cy3-conjugated secondary antibody diluted in 0.1% Triton X-100 PBS plus BSA 1 mg/ml. Finally, cell nuclei were counterstained with Hoechst 33258 dye, and the coverslips were mounted onto glass slides using Vectashield.

[6] = test system: alpha-synuclein aggregation in primary mesencephalic neurons; test: Alpha-synuclein aggregation in primary mouse midbrain neurons exposed to glucose deprivation; format: cell-based; conditions: I-threo, VI-threo 50 and 100 nM, MPH 100 nM

Compound: COC(=O)[C@@H](Cc1ccc(C)cc1)C1CCCCN1.Cl (stereo partly drawn) [IX-threo]
- % FRET efficiency change vs MPH-treated cells [1]: +4.6%

Compound: COC(=O)[C@@H](c1ccc(-c2ccccc2)cc1)C1CCCCN1.Cl (stereo partly drawn) [V-threo]
- concentration from which markedly toxic (MTT) ([2]; 0.01-100 μM tested): ≥ 100 nM
- cytotoxicity (MTT), in words ([2]; low concentrations): cytotoxicity at low concentrations
- stimulation of alpha-synuclein/Synapsin III interaction (FRET efficiency), in words [1]: not able to stimulate alpha-synuclein/Synapsin III interaction; also recorded: No significant increase

Compound: COC(=O)[C@@H](c1ccc2ccccc2c1)C1CCCCN1.Cl (stereo partly drawn) [IV-threo]
- cell viability (MTT) at 100 μM ([2]; 100 μM): the same profile of I-threo; also recorded: significant decrease in cell viability
- stimulation of alpha-synuclein/Synapsin III interaction (FRET efficiency), in words [1]: not able to stimulate alpha-synuclein/Synapsin III interaction; also recorded: No significant increase

Compound: COC(=O)[C@@H](Cc1ccccc1)C1CCCCN1.Cl (stereo partly drawn) [VII-threo, threo methyl 3-phenyl-2-(piperidin-2-yl)propanoate hydrochloride]
- % FRET efficiency change vs MPH-treated cells [1]: +4.3%

Compound: COC(=O)C(c1ccccc1)C1CCCCN1 (stereo not shown) [MPH, Methylphenidate, reference compound]
- Synapsin III-dependent locomotor activity [3]: over-stimulate a Synapsin III-dependent locomotor activity
- freezing of gait [4]: efficiently counteract freezing of gait
- alpha-synuclein aggregates seen in images after GD ([5]; 10 μM): a reduction in the formation of alpha-synuclein aggregates
- EC50 ([5]; Homo sapiens, SK-N-SH cells, read-out: EC50 in reducing alpha-synuclein aggregation): 37.3 µM

Compound: COC(=O)[C@@H](c1ccc(C)cc1)C1CCCCN1C.Cl (stereo partly drawn) [VI-threo, threo methyl 2-(1-methylpiperidin-2-yl)-2-(p-tolyl)acetate hydrochloride]
- toxic effects (MTT) at the working concentrations ([2]; concentrations reducing aggregation or stimulating interaction): did not exhibit toxic effects
- % FRET efficiency change vs control untreated cells ([1]; neuronally differentiated SK-N-SH cells): +3.4%
- alpha-synuclein aggregates seen in images after GD ([5]; 10 μM): no aggregates were observed
- formation of alpha-synuclein inclusions after GD (immunofluorescence intensity and average particle size) ([5]; 10 μM, 24 h after 1 h glucose deprivation, vs untreated, hydrochloride): significantly reduce the formation of alpha-synuclein inclusions; also recorded: significantly reduce alpha-synuclein aggregation in vitro
- alpha-synuclein inclusion formation (total immunofluorescence intensity and particle size) [6]: did not reduce alpha-synuclein aggregation

— US12629359B2 (UNIVERSITA' DEGLI STUDI DI BRESCIA, priority 2020, dated 2026)
